Results on one compound are retold here after US12115208B2, “Small-molecule adjuvants for antibiotics to address antibiotic resistance” (HIGH POINT UNIVERSITY, priority 2017, dated 2024).

Assay [1] has as its target β-lactamase, MSSA ATCC 29213 (Staphylococcus aureus, UniProt P00807). Particulars: MSSA 29213.
Experimental: For whole cell nitrocefin assays, bacteria was cultured overnight in CAMHB at 37° C. with shaking. The overnight culture was subcultured 1:100 in fresh CAMHB and grown at 37° C. with shaking to mid-log phase (OD600=0.4-0.6). The culture was adjusted to an OD600 of 0.2 in fresh CAMHB. […] These suspensions were incubated at 37° C. with shaking for thirty minutes. The suspensions were adjusted to an OD600 of 0.132 in phosphate buffered saline (PBS, pH 7, 900 μl). A 100 μl of a stock solution of nitrocefin (500 mg/ml in PBS) was added to these suspensions and mixed. The nitrocefin-bacteria suspensions (100 μl) were added to the wells of a clear 96-well polystyrene microtiter plate. A 50 mg/ml solution of nitrocefin in PBS served as a blank. Using BioTek Synergy H1 microplate reader maintained at 37° C., the absorbance at 486 nm was recorded every 5 minutes for 2 hours.
The known β-lactamase inhibitor sulbactam was used as a positive control. Again, all assays were run in triplicate and each data point represents the average of three data points.
In assay [2] the test system is S. aureus ATCC 29213. As to the kind of experiment: Minimum inhibitory concentration, broth microdilution. The format is cell-based. The following applies: Staphylococcus aureus, ATCC29213; compound alone; S. aureus ATCC 29213; CAMHB, 18 h; read-out: MIC. How it is done: (§1) The compounds were then analyzed for antibiotic repotentiation activity. […] The tested strains included USA300, which is a common and particularly virulent strain of community-acquired MRSA.
In general terms: In broth dilution the organism is exposed to a series of concentrations in liquid medium.

Assay [3] has as its system blaZ mRNA. As to the kind of experiment: RT-qPCR mRNA levels. The format is cell-based, Staphylococcus aureus (MRSA). How it is done: (§2) Triplicate cultures of each condition were briefly centrifuged and cell pellets were stored at −80° C. Pellets were resuspended in 100 uL of lyphostaphin (1 mg/mL) and incubated at room temperature for 10 minutes. Next, lysates were subjected to a Qiashredder column and RNA was purified with RNeasy columns according to the manufacturer's protocol (Qiagen). An on-column DNase step was also included. Total RNA was quantified and purity was assessed with a Nanodrop spectrophotometer (Thermo Scientific). RNA integrity was visualized by agarose gel electrophoresis using GelRed (Phenix) and a ChemiDoc MP (BioRad).
(§3) 200 ng of total RNA was reverse transcribed using random primers, according to the manufacturer's protocol (BioRad select cDNA synthesis kit). Minus reverse transcriptase controls were prepared for each sample. Next, duplicate qPCR reactions were performed for each cDNA template using SYBR green according to the manufacturer's protocol (BioRad SYBR Green Supermix). Primer sequences are found in Supporting Information. Those that the authors designed used NCBI Primer Blast to specify the annealing temperatures, length, location, and analyze specificity and secondary structure. All reactions were run on a StepOne thermal cycler (Applied Biosystems). Cycling parameters were as follows: 95° C. for 10 minutes, 40 cycles of 95° C. for 15 seconds followed by 60° C. for 1 minute. Specificity of each primer pair was assessed with melt curve analyses and agarose gel electrophoresis. The efficiency of each primer pair was calculated using results from calibration curves generated in Microsoft Excel. Contaminating genomic DNA levels were calculated using the comparative Ct method. Gene expression levels relative to 16S rRNA were calculated using a relative quantification model.^17 Statistical significance was determined by unpaired student's t tests. All calculations were performed using Microsoft Excel.
(§4) See Blazquez, B. et al., “Regulation of the expression of the beta-lactam antibiotic-resistance determinants in methicillin-resistant Staphylococcus aureus (MRSA),” Biochemistry 2014, 53 (10), 1548; Staude, M. W. et al., “Investigation of signal transduction routes within the sensor/transducer protein BlaR1 of Staphylococcus aureus,” Biochemistry 2015, 54 (8), 1600; Thumanu, K., et al., “Discrete steps in sensing of beta-lactam antibiotics by the BlaR1 protein of the methicillin-resistant Staphylococcus aureus bacterium,” Proc Natl Acad Sci USA 2006, 103 (28), 10630, which are incorporated herein by reference in their entireties.
(Quantitative PCR measures a nucleic acid by following its amplification.)

The subject of assay [4] is blaI mRNA. The assay is described as follows: RT-qPCR mRNA levels. The format is cell-based, Staphylococcus aureus (MRSA). Particulars: co-treatment amoxapine and oxacillin vs oxacillin alone. As for the experimental part: as §2, §3, §4
Assay [5] deals with S. aureus ATCC 43300 (MRSA). The assay is described as follows: Minimum inhibitory concentration, broth microdilution. The format is cell-based, Staphylococcus aureus. Particulars: Staphylococcus aureus; compound alone; S. aureus ATCC 43300 (MRSA); CAMHB, 18 h; read-out: MIC. How it is done:
as §1

Assay [6] deals with S. aureus USA300 (MRSA). The assay is described as above. The format is cell-based, Staphylococcus aureus. Particulars: Staphylococcus aureus; compound alone; S. aureus USA300 (MRSA); CAMHB, 18 h; read-out: MIC. How it is done: as §1
The test system of assay [7] is S. epidermidis 49461. As to the kind of experiment: Antibiotic repotentiation (oxacillin MIC with/without compound). The following applies: +75 μM compound; S. epidermidis 49461. The format is cell-based, Staphylococcus epidermidis. How it is done:
The overnight culture was diluted into fresh CAMHB to a concentration of 5×10^5 CFU/ml. […] On the same plate, a standard microdilution MIC with the tested antibiotics and no added compound was also performed to compare the antibiotic MIC in the presence and absence of compound. […] Fold reductions were calculated by dividing the MIC of the antibiotic without compound by the MIC of the antibiotic in the presence of compound.
Antibiotic potentiation in S. epidermidis was also investigated.

For assay [8], the system named is mecA mRNA. The format is cell-based, Staphylococcus aureus (MRSA). Particulars: co-treatment amoxapine and oxacillin vs oxacillin alone. How it is done: as §2
(§5) 200 ng of total RNA was reverse transcribed using random primers, according to the manufacturer's protocol (BioRad select cDNA synthesis kit). Minus reverse transcriptase controls were prepared for each sample. […] Specificity of each primer pair was assessed with melt curve analyses and agarose gel electrophoresis. The efficiency of each primer pair was calculated using results from calibration curves generated in Microsoft Excel. Contaminating genomic DNA levels were calculated using the comparative Ct method. Gene expression levels relative to 16S rRNA were calculated using a relative quantification model.^17 Statistical significance was determined by unpaired student's t tests. […]

Assay [9] relates to mecI mRNA. The format is cell-based, Staphylococcus aureus (MRSA). Particulars: co-treatment amoxapine and oxacillin vs oxacillin alone. As for the experimental part:
as §2, §5

The subject of assay [10] is MRSA. The assay is described as follows: Growth curves. The format is cell-based, Staphylococcus aureus. The following applies: MRSA in CAMHB. As for the experimental part: The overnight culture was diluted into fresh CAMHB to a concentration of 5×10^5 CFU/ml. The cell suspension (3 mL) was aliquoted into sterile culture tubes and compound was added to achieve the desired concentrations. An untreated aliquot served as the control. 200 μl of each suspension or of the untreated control was aliquoted into a flat-bottomed microtiter plate. The plate was maintained at 37° C. with shaking and absorbance readings (600 nm) were recorded every 30 minutes for 24 hours.
MRSA was grown in cation-adjusted Mueller-Hinton broth (CAMHB). […] The optical density of the cultures at 600 nm was measured every 2 hours for 8 hours and again at 24 hours.

The subject of assay [11] is S. aureus ATCC 29213. As to the kind of experiment: Antibiotic repotentiation (antibiotic MIC with/without compound). The format is cell-based, Staphylococcus aureus. The following applies: ATCC 29213.
The subject of assay [12] is S. aureus USA300 (MRSA). The assay is described as above. The format is cell-based, Staphylococcus aureus. Particulars: USA300 (MRSA).
For assay [13], the system named is pbp2 mRNA. The assay is described as follows: RT-qPCR mRNA levels. The format is cell-based, Staphylococcus aureus (MRSA). Particulars: co-treatment amoxapine and oxacillin vs oxacillin alone. How it is done: as §2, §5

Like-named read-outs stand apart in the source and are kept apart here.

β-lactamase, MSSA ATCC 29213, sequence (P00807 25-281): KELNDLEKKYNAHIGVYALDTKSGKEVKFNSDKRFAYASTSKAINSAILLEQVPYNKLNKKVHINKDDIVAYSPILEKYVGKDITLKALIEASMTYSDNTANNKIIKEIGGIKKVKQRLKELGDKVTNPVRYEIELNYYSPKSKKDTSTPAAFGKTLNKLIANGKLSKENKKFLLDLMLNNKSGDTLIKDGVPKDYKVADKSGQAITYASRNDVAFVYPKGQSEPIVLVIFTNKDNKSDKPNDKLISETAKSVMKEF

One may read the MIC as the lowest concentration that inhibits growth of the organism. Turning to `Clc1ccc2c(c1)C(N1CCNCC1)=Nc1ccccc1O2` [Amoxapine, 2-chloro-11-(1-piperazinyl)dibenz[b,f][1,4]oxazepine], the “effect on β-lactamase activity (nitrocefin hydrolysis)” value in assay [1] (oxacillin in combination with amoxapine) is listed as “little effect”; in assay [1] (treatment alone, compared to untreated cells) it was “no effect”. The MIC in assay [2], in assay [5] and in assay [6] was 600 µM throughout. Also, the “effect on mRNA levels” value in assay [3] (amoxapine alone vs untreated control (data not shown)) is “no significant effect”. Moreover, the “reduction in blaZ levels” value in assay [3] (co-treatment amoxapine and oxacillin vs oxacillin alone) was found to be 3.0 fold. In assay [4], the “reduction in blaI levels” value is 2.2 fold. Further, the “Oxacillin MIC” value is 4 µg/mL in assay [7]; 0.25 µg/mL in assay [11] (+75 μM compound); 0.125 µg/mL in assay [11] (+150 μM compound); 16 µg/mL in assay [12] (+75 μM compound); 2 µg/mL in assay [12] (+150 μM compound). In addition, the “reduction in mecA mRNA levels” value in assay [8] was found to be 4.5 fold. Further, the “reduction in mecI mRNA levels” value in assay [9] is recorded as 3.0 fold. Moreover, the “effect on cell density (OD 600 nm) throughout the experiment” value in [10] (combination of oxacillin (1 μg/mL) and amoxapine (150 μM), 24 h) is on record as “potent inhibition of cell density”. The “effect on cell density (OD 600 nm) after 24 hours” value in assay [10] (single treatment: oxacillin 1 μg/mL alone or amoxapine 150 μM alone) is “negligible effect”. For the same compound, the “effect on mRNA levels of pbp2” value in assay [13] is given as “no significant effect”.
